Source: patent publication US7592154B2, “Modulating SOS response induction by antimicrobial agents” (The Board of Trustees of the Leland Stanford Junior …, priority 2005, dated 2009)

Columns and labels:
citC gene = test: quantitative RT-PCR of citC expression; assay type: cell-based, E. coli; conditions: SC1088, 30° C., ampicillin 4 μg/ml for 4 hours (FIG. 1C)
Source text: (§1) FIGS. 1A-1C. Structure and transcripts of the dpiBA operon. (A) The dpiB and dpiA genes are aligned in the 5′-3′ direction; citC is 5′ of the dpiBA promoter/operator region and is transcribed divergently from it. The segment of the dpiBA operon included in plasmid pHI1508 is indicated. (B) Agarose gel electrophoresis showing bands generated by reverse transcription PCR amplification of E. coli SC1088 RNA using pairs of oligonucleotide primers corresponding to sequences within dpiB (lane 1, primers a+b), dpiA (lane 2, primers c+d), or both genes (lane 3, primers a+d). Locations of primer sequences are indicated in (A). […] Amounts of template RNA used and loaded onto gels were equal, as assessed by intensity of 16S rRNA bands (bottom panel).

[1] = test system: E. coli SC1088 wild-type and dpiA, recA, sfiA null mutants; test: survival of bacterial cultures exposed to antibiotic (cfu counting); assay type: cell-based; conditions: for effectiveness (survival) in recA mutant cells versus wild type SC1088: naladixic acid 5 μg/ml, pipericillin 1 μg/ml, kanamycin 5 μg/ml (FIGS. 5A-5C)
Procedure: FIG. 4. Effect of SOS response induction on survival of bacterial cells expressing DpiA during β-lactam exposure. […] Survival data are also shown for strains containing null mutations in recA (open diamonds), dpiA (open circles), or sfiA (open triangles). […] Percent survival was determined by counting of colony forming units (cfu's), at least 200 colonies were counted per time point, and plotted as a function of exposure time before exposure or after exposure to antibiotics.
Because β-lactam antibiotics kill only bacteria that are dividing, we hypothesized that the ability of these drugs to induce the SOS response, and consequently delay cell division by increasing the expression of sfiA, may provide temporary protection from β-lactam lethality.
The experiments shown in FIG. 4 were repeated with the antibiotics: naladixic acid, at 5 μg/ml; pipericillin, at 1 μg/ml; and kanamycin at 5 μg/ml. As shown in FIGS. 5A-5C, the black squares are wild type cells, strain SC1088, the green circles are the dpiA null strain in that background, and the red diamonds are the recA mutation in that background.

dpiBA transcripts = test: quantitative RT-PCR of dpiBA transcripts; assay type: cell-based, E. coli; conditions: SC1088, 30° C., ampicillin 4 μg/ml for 4 hours (FIG. 1C)
Source text: as §1

[2] = test system: dpiB promoter (dpiBA operon); test: dpiB/lacZ reporter fusion (pHI1508), β-galactosidase synthesis; assay type: cell-based, E. coli; conditions: ampicillin 10 μg/ml, 2 hours, 37° C.
[3] = test system: pabA promoter (gene up-regulated by DpiA); test: pabA/lacZ fusion (pHI1627), β-galactosidase production; assay type: cell-based, E. coli; conditions: ampicillin 10 μg/ml, 2 hours, 37° C.
Source text: A library of E. coli promoters fused to a lacZ gene fragment was constructed as follows: SC1088 chromosomal DNA was partially digested with Sau3AI and 1-2 kb fragments were gel extracted, purified, and ligated to the BamHI site of pHI1496, a lacZ expression vector conferring chloramphenicol resistance (S1). […] Three clones were sequenced and found to contain a 5 kb insert in which the melR promoter region was fused to lacZ (pHI1626), a 300 bp fragment that includes the promoter region of pabA (pHI1627), and a 2.5 kb insert containing the 57-minute region of the E. coli chromosome (pHI1628).

[4] = test system: SOS-regulated promoter of the sfiA gene; test: sfiA/lacZ fusion, measure of SOS response; assay type: cell-based, E. coli
Source text: FIGS. 3A-3B. SOS response induced by PBP3 inactivation. […] Both (A) and (B) are averages of three separate experiments. Strains were constructed by P1 transduction. Strain 1088 was transduced with phage P1 from E. coli strains containing recA::Tn10(S3) and lexA71::Tn5 (from Mary Berlyn, CGSC). Strain BR5171 is BR3151 (S4) containing a kanamycin resistance gene introduced into the dpiA locus to create a null mutation; another BR3151 derivative, BR7171, contains a Tn10 insertion in the recA locus to create a null mutation. […] An sfiA/lacZ fusion closely linked to a kanamycin resistance marker (S5) was incorporated into the chromosome of ftsIts strain JOE339 and a JOE339 derivative containing a chloramphenicol resistance gene in the dpiA gene (S1).
A biological consequence of DpiA overexpression is induction of the SOS response; the extent of such induction can be determined by β-galactosidase synthesis from a lacZ fusion with the SOS-regulated promoter of the sfiA gene [e.g. Bacolla et al. (2001) J. Biol. Chem. 276, 18579; Hendricks et al. (2000) Mol. Microbiol. 36, 973], which prevents FtsZ polymerization and inhibits cell division when SOS is activated.
The dependence of β-lactam/PBP3-mediated SOS induction on dpiA contrasted with the lack of effect of the dpiA mutation on RecA expression induced by the DNA damaging agent mitomycin C, indicating the distinctive nature of the cell wall-mediated and DNA damage-mediated paths to SOS induction.

E. coli PBPs = conditions: cited from earlier work
RecA protein = test: Western blot with anti-RecA antibody; assay type: cell-based, E. coli; conditions: one hour of exposure, relative to absence of induction
Source text: Chemiluminescence of bands was quantitated using a BioRad Versadoc 1000 instrument.

[5] = test system: dpiB promoter (dpiBA operon); test: dpiB/lacZ reporter fusion (pHI1508), β-galactosidase synthesis; assay type: cell-based, E. coli; conditions: for expression of the dpi operon (lacZ reporter fusion to the dpiB promoter): E. coli UT481 pHI1508, 30° C., antibiotics at approximately twice the MIC (FIG. 2A)
Procedure: FIGS. 2A-2C. […] (A) Expression of the dpi operon as measured in lacZ^− E. coli strain UT481 by a lacZ reporter fusion to the dpiB promoter on pHI1508 [in Miller units]. Bacteria were grown at 30° C. with or without (black squares) antibiotics. […] All antibiotics were added at approximately twice the MIC value for E. coli. All points represent the average of at least three separate experiments. (B) Induction of dpiB/lacZ (as measured by β-galactosidase expression calculated in Miller units) in E. coli JOE339, a lacZ^− mutant strain that carries an ftsl^ts mutation. […] (C) Same as (B) but in MC4100, the parent of JOE339. For (B) and (C), bars indicate SD.
We wished to identify stimuli that activate the dpiBA operon; to monitor such activation, we fused a Hind III-Sma I DNA segment containing the region 5′ to dpiB to a lacZ reporter gene fragment (pHI1508 in FIG. 1A) pHI1508 carries a HindIII-SmaI fragment containing the dpiBA operator/promoter and the first 1219 nucleotides of dpiB (indicated by the heavy bar), inserted into the StuI-HindIII sites of pHI1496, fusing it to the lacZ reporter gene (S1). β-Galactosidase synthesis from this construct was investigated under a variety of growth-limiting conditions known to activate two-component systems and/or the SOS response (including growth in media containing different carbon sources; starvation for O2, PO4, or carbon; heat or cold shock; high salt; exposure to ultraviolet light; culture in stationary phase or in conditioned media; and concentration to a high cell density).

For CC1(C)S[C@@H]2[C@H](NC(=O)[C@H](N)c3ccccc3)C(=O)N2[C@H]1C(=O)O [ampicillin], the “increase in expression of citC gene” value (citC gene) was “threefold”, the “cells unable to form colonies” value ([1]; cells mutated in dpiA, recA, or sfiA, 1 hour exposure, 3 μg/ml) was 90% and the “exposure required for the same extent of killing (90%) of wild-type cells” value ([1]; 3 μg/ml) was 4 h. For the same compound, the “exposure required for the same extent of killing (90%) of wild-type cells” value ([1]; 9 μg/ml) was 1 h, the “increase in dpiBA transcripts” value (dpiBA transcripts) was “fourfold” and the β-Galactosidase production ([2]; WT strain 1088 + pHI1508) was 345 ± 50 Miller units. For the same compound, the β-Galactosidase production ([2]; dpiA null mutant + pHI1508) was 113 ± 15 Miller units, the β-Galactosidase production ([2]; lexA null mutant + pHI1508) was 110 ± 10 Miller units and the β-Galactosidase production ([2]; recA null mutant + pHI1508) was 80 ± 8 Miller units. For the same compound, the β-Galactosidase production ([3]; WT strain 1088 + pHI1627) was 185 ± 20 Miller units, the β-Galactosidase production ([3]; dpiA null mutant + pHI1627) was 18 ± 1 Miller units and the “lacZ expression from sfiA/lacZ fusion” value ([4]; BR3151, ampicillin 4 μg/ml (FIG. 3A)) was “increased lacZ expression”. For the same compound, the sfiA/lacZ expression ([4]; bacteria containing a dpiA null mutation, ampicillin 4 μg/ml (FIG. 3A)) was “no change”, the “effect on expression of the sfiA/lacZ fusion” value ([4]; recA or lexA mutants, ampicillin treatment (FIG. 3A)) was “prevented the effects” and the “binding to E. coli PBPs” value (E. coli PBPs) was “binds to all 12 E. coli PBPs”. For the same compound, the RecA protein increase (RecA protein; dpiA::Km null mutant) was “no increase”, the RecA protein increase (RecA protein; wt strain 1088, 4 μg/ml) was 1.9±0.4 fold and the “expression of the dpi operon (lacZ reporter fusion to the dpiB promoter)” value (“expression of the dpi operon” for short) [5] was “stimulated”. For the same compound, the “induction of the dpi operon” value ([5]; ampicillin resistant bacteria carrying a plasmid borne gene encoding β-lactamase) was “not observed”.
With penicillin the “expression of the dpi operon” value [5] was “stimulated”.
With CCN1CCN(C(=O)N[C@@H](C(=O)N[C@@H]2C(=O)N3[C@@H]2SC(C)(C)[C@@H]3C(=O)O)c2ccccc2)C(=O)C1=O [pipericillin] the “survival relative to the number before addition of antibiotic” value ([1]; dpiA mutant bacteria, overnight exposure, 2 μg/ml) was 0.001%, the “effectiveness (survival) in recA mutant cells versus wild type SC1088” value [1] was “more effective” and the “surviving wild-type bacteria versus dpiA mutant bacteria” value ([1]; overnight exposure, 2 μg/ml) was 10 times. The “survival relative to the number before addition of antibiotic” value ([1]; wild-type bacteria, overnight exposure, 2 μg/ml) was 0.01%, the “binding to E. coli PBPs” value (E. coli PBPs) was “bind only to PBP3” and the “expression of the dpi operon” value [5] was “stimulated”.
For CO[C@@]12[C@H](COC(N)=O)C3=C(C(=O)C(C)=C(N)C3=O)N1C[C@@H]1N[C@@H]12 [mitomycin C], the RecA protein increase (RecA protein; dpiA::Km null mutant) was 2.0±0.3 fold and the RecA protein increase (RecA protein; wt strain 1088, 4 μg/ml) was 1.5±0.2 fold.
With CO/N=C(\C(=O)N[C@@H]1C(=O)N2C(C(=O)O)=C(COC(N)=O)CS[C@H]12)c1ccco1 [cefuroxan] the “expression of the dpi operon” value [5] was “stimulated”.
With CCn1cc(C(=O)O)c(=O)c2ccc(C)nc21 [nalidixic acid] the “effectiveness (survival) in recA mutant cells versus wild type SC1088” value [1] was “more effective”.
In the case of CC1=C(C(=O)O)N2C(=O)[C@@H](NC(=O)[C@H](N)c3ccccc3)[C@H]2SC1 [cephalexin], the “binding to E. coli PBPs” value (E. coli PBPs) is listed as “bind only to PBP3” and the “expression of the dpi operon” value [5] is listed as “stimulated”.
